Laboratory results published in patent US12577206B2 (BRISTOL-MYERS SQUIBB COMPANY, priority 2020, dated 2026).

Assays:
[1] = target: T1, human FPR2 (Homo sapiens, UniProt P25090); test: FPR2 cyclic adenosine monophosphate (cAMP) assay; assay type: cell-based; conditions: CHO cells overexpressing human FPR2; forskolin 5 μM; inhibition of cAMP production; HTRF; read-out: hFPR2 cAMP2 EC50
T1 sequence (P25090 1-351): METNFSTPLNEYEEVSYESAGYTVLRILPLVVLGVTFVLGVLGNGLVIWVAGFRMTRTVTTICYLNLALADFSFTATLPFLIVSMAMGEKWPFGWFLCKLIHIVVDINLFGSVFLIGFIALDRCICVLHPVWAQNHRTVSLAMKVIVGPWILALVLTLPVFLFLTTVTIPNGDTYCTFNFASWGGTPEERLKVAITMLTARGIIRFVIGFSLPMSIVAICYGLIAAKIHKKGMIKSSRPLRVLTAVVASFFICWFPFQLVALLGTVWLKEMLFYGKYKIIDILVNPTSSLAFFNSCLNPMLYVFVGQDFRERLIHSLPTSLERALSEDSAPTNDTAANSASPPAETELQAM
How it was run: (§1)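 Inhibition of forskolin-stimulated cAMP (final forskolin 5 μM for FPR2, 10 μM for FPR1; IBMX 200 μM) was measured by HTRF in recombinant CHO cells after 30 min at room temperature.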

[2] = target: T2, human FPR1 (Homo sapiens, UniProt P21462); test: FPR1 cyclic adenosine monophosphate (cAMP) assay; assay type: cell-based; conditions: CHO cells overexpressing human FPR1; forskolin 10 μM; inhibition of cAMP production; HTRF; read-out: hFPR1 cAMP2 EC50
T2 sequence (P21462 1-350): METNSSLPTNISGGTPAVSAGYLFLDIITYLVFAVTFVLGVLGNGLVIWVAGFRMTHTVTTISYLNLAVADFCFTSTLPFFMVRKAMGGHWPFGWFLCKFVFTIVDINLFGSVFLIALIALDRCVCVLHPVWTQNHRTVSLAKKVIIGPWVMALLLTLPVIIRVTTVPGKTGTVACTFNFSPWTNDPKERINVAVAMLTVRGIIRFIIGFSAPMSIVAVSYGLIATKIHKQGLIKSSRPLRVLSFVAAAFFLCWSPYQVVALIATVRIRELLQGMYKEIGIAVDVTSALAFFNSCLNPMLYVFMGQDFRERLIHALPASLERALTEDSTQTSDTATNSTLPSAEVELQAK
How it was run: as §1

| Structure (SMILES) | EC50 [1] [nM] | EC50 [2] [µM] |
| --- | --- | --- |
| COc1cc(F)c(-c2c(NC(=O)c3ccc(OC(F)F)cc3)c(=O)n(-c3nc(Cl)ccc3N3CC4(COC4)C3)n2C)c(F)c1 [Example 144, N-[2-(6-chloro-3-{2-oxa-6-azaspiro[3.3]heptan-6-yl}pyridin-2-yl)-5-(2,6-difluoro-4-methoxyphenyl)-1-methyl-3-oxo-2,3-dihydro-1H-pyrazol-4-yl]-4-(difluoromethoxy)benzamide] | 22 | > 10 |
| COc1cc(F)c(-c2c(NC(=O)c3ccc(OC(F)F)cc3)c(=O)n(-c3nc(N4CC(F)(F)C4)ccc3Cl)n2C)c(F)c1 [Example 145, N-{2-[3-chloro-6-(3,3-difluoroazatidin-1-yl)pyridin-4-methoxyphenyl)-1-methyl-3-oxo-2,3-dihydro-1H-pyrazol-4-yl}-4-(difluoromethoxy)benzamide] | 3 | 2.9 |
| COc1cc(F)c(-c2c(NC(=O)c3ccc(OC(F)F)cc3)c(=O)n(-c3nc(Cl)ccc3F)n2C)c(F)c1 [Example 146, N-[2-(6-chloro-3-fluoropyridin-2-yl)-5-(2,6-difluoro-4-methoxyphenyl)-1-methyl-3-oxo-2,3-dihydro-1H-pyrazol-4-yl]-4-(difluoromethoxy)benzamide] | 6 | > 10 |
| COc1cc(F)c(-c2c(NC(=O)c3ccc(OC(F)F)cc3)c(=O)n(-c3nc(N(C)C)ccc3Cl)n2C)c(F)c1 [Example 147, N-{2-[3-chloro-6-(dimethylamino)pyridin-2-yl]-5-(2,6-difluoro-4-methoxyphenyl)-1-methyl-3-oxo-2,3-dihydro-1H-pyrazol-4-yl}-4-(difluoromethoxy)benzamide] | 3 | 0.73 |
| COc1cc(F)c(-c2c(NC(=O)c3ccc(OC(F)F)cc3)c(=O)n(-c3cc(F)cc(C(C)(C)O)c3)n2C)c(F)c1 [Example 148, N-[5-(2,6-difluoro-4-methoxyphenyl)-2-[3-fluoro-5-(2-hydroxypropan-2-yl)phenyl]-1-methyl-3-oxo-2,3-dihydro-1H-pyrazol-4-yl]-4-(difluoromethoxy)benzamide] | 4 | 1.5 |
| COc1cc(F)c(-c2c(NC(=O)c3ccc(OC(F)F)cc3)c(=O)n(-c3cc(Cl)cc(N4C[C@H]5C[C@@H]4CN5)c3)n2C)c(F)c1 [Example 149, N-(2-{3-chloro-5-[(1R,4R)-2,5-diazabicyclo[2.2.1]heptan-2-yl]phenyl}-5-(2,6-difluoro-4-methoxyphenyl)-1-methyl-3-oxo-2,3-dihydro-1H-pyrazol-4-yl)-4-(difluoromethoxy)benzamide] | 6 | 4.7 |
| COc1cc(F)c(-c2c(NC(=O)c3ccc(OC(F)F)cc3)c(=O)n(-c3cccc(N4CCCCC4=O)n3)n2C)c(F)c1 [Example 150, N-[5-(2,6-difluoro-4-methoxyphenyl)-1-methyl-3-oxo-2-[6-(2-oxopiperidin-1-yl)pyridin-2-yl]-2,3-dihydro-1H-pyrazol-4-yl]-4-(difluoromethoxy)benzamide] | 13 | 1.5 |
| COc1cc(F)c(-c2c(NC(=O)c3ccc(OC(F)(F)F)cc3)c(=O)n(-c3cc(C)ccn3)n2C)c(F)c1 [Example 151, N-[5-(2,6-difluoro-4-methoxyphenyl)-1-methyl-2-(4-methylpyridin-2-yl)-3-oxo-2,3-dihydro-1H-pyrazol-4-yl]-4-(trifluoromethoxy)benzamide] | 13 | 2.7 |
| COc1cc(F)c(-c2c(NC(=O)c3ccc(OC(F)F)cc3)c(=O)n(-c3cc(Cl)ccn3)n2C)c(F)c1 [Example 152, N-[2-(4-chloropyridin-2-yl)-5-(2,6-difluoro-4-methoxyphenyl)-1-methyl-3-oxo-2,3-dihydro-1H-pyrazol-4-yl]-4-(difluoromethoxy)benzamide] | 10 | > 10 |
| COc1cc(F)c(-c2c(NC(=O)c3ccc(OC(F)(F)F)cc3)c(=O)n(-c3cc(Cl)ccn3)n2C)c(F)c1 [Example 153, N-[2-(4-chloropyridin-2-yl)-5-(2,6-difluoro-4-methoxyphenyl)-1-methyl-3-oxo-2,3-dihydro-1H-pyrazol-4-yl]-4-(trifluoromethoxy)benzamide] | 5 | 4.2 |
| COc1cc(F)c(-c2c(NC(=O)c3ccc(OC(F)(F)F)cc3)c(=O)n(-c3ncccc3C(F)(F)F)n2C)c(F)c1 [Example 154, N-[5-(2,6-difluoro-4-methoxyphenyl)-1-methyl-3-oxo-2-[3-(trifluoromethyl)pyridin-2-yl]-2,3-dihydro-1H-pyrazol-4-yl]-4-(trifluoromethoxy)benzamide] | 4 | > 10 |
| COc1cc(F)c(-c2c(NC(=O)c3ccc(OC(F)(F)F)cc3)c(=O)n(-c3cccc(C(F)(F)F)n3)n2C)c(F)c1 [Example 155, N-[5-(2,6-difluoro-4-methoxyphenyl)-1-methyl-3-oxo-2-[6-(trifluoromethyl)pyridin-2-yl]-2,3-dihydro-1H-pyrazol-4-yl]-4-(trifluoromethoxy)benzamide] | 9 | 2.2 |
| COc1cc(F)c(-c2c(NC(=O)c3ccc(OC(F)F)cc3)c(=O)n(-c3cccc(C(F)(F)F)n3)n2C)c(F)c1 [Example 156, N-[5-(2,6-difluoro-4-methoxyphenyl)-1-methyl-3-oxo-2-[6-(trifluoromethyl)pyridin-2-yl]-2,3-dihydro-1H-pyrazol-4-yl]-4-(difluoromethoxy)benzamide] | 15 | 4 |
| COc1cc(F)c(-c2c(NC(=O)c3ccc(OC(F)F)cc3)c(=O)n(-c3nc(C(F)(F)F)ccc3C#N)n2C)c(F)c1 [Example 157, N-{2-[3-cyano-6-(trifluoromethyl)pyridin-2-yl]-5-(2,6-difluoro-4-methoxyphenyl)-1-methyl-3-oxo-2,3-dihydro-1H-pyrazol-4-yl}-4-(difluoromethoxy)benzamide] | 4 | > 10 |
| COc1cc(F)c(-c2c(NC(=O)c3ccc(OC(F)F)cc3)c(=O)n(-c3ncccc3OC(F)F)n2C)c(F)c1 [Example 158, N-[5-(2,6-difluoro-4-methoxyphenyl)-2-[3-(difluoromethoxy)pyridin-2-yl]-1-methyl-3-oxo-2,3-dihydro-1H-pyrazol-4-yl]-4-(difluoromethoxy)benzamide] | 13 | > 10 |
| COc1cc(F)c(-c2c(NC(=O)c3ccc(OC(F)F)cc3)c(=O)n(-c3nc(C(F)(F)F)ccc3Br)n2C)c(F)c1 [Example 159, N-{2-[3-bromo-6-(trifluoromethyl)pyridin-2-yl]-5-(2,6-difluoro-4-methoxyphenyl)-1-methyl-3-oxo-2,3-dihydro-1H-pyrazol-4-yl}-4-(difluoromethoxy)benzamide] | 7 | > 10 |
| COc1cc(F)c(-c2c(NC(=O)c3ccc(OC(F)F)cc3)c(=O)n(-c3nc(C4CC4)ccc3Br)n2C)c(F)c1 [Example 160, N-[2-(3-bromo-6-cyclopropylpyridin-2-yl)-5-(2,6-difluoro-4-methoxyphenyl)-1-methyl-3-oxo-2,3-dihydro-1H-pyrazol-4-yl]-4-(difluoromethoxy)benzamide] | 3 | > 10 |
| COc1cc(F)c(-c2c(NC(=O)c3ccc(OC(F)F)cc3)c(=O)n(-c3nc(C4CC4)ccc3C#N)n2C)c(F)c1 [Example 161, N-[2-(3-cyano-6-cyclopropylpyridin-2-yl)-5-(2,6-difluoro-4-methoxyphenyl)-1-methyl-3-oxo-2,3-dihydro-1H-pyrazol-4-yl]-4-(difluoromethoxy)benzamide] | 4 | > 10 |
| COc1cc(-n2c(=O)c(NC(=O)c3ccc(OC(F)F)cc3)c(-c3c(F)cc(OC)cc3F)n2C)nc(C(F)(F)F)c1 [Example 162, N-[5-(2,6-difluoro-4-methoxyphenyl)-2-[4-methoxy-6-(trifluoromethyl)pyridin-2-yl]-1-methyl-3-oxo-2,3-dihydro-1H-pyrazol-4-yl]-4-(difluoromethoxy)benzamide] | 12 | > 10 |
| CCc1cccc(-n2c(=O)c(NC(=O)c3ccc(OC(F)F)cc3)c(-c3c(F)cc(OC)cc3F)n2C)n1 [Example 163, N-[5-(2,6-difluoro-4-methoxyphenyl)-2-(6-ethylpyridin-2-yl)-1-methyl-3-oxo-2,3-dihydro-1H-pyrazol-4-yl]-4-(difluoromethoxy)benzamide] | 4 | > 10 |
| COc1cc(F)c(-c2c(NC(=O)c3ccc(Cl)cc3)c(=O)n(-c3ncccc3Cl)n2C)c(F)c1 [Example 164, 4-chloro-N-[2-(3-chloropyridin-2-yl)-5-(2,6-difluoro-4-methoxyphenyl)-1-methyl-3-oxo-2,3-dihydro-1H-pyrazol-4-yl]benzamide] | 15 | > 10 |
